Reference: the CATMoS acute toxicity set (Mansouri et al. 2021)
Where a SMILES comes first, the peptide text is derived from it. [ ]: non-standard residue; d: D form. The star is where a group is joined. Sta = CC(C)C[C@H](N)[C@@H](O)CC(=O)O; Isovaleryl = CC(C)CC(=O)*

Test: GHS categories as the set defines them, by LD50: 1 up to 5, 2 up to 50, 3 up to 300, 4 up to 2000, 5 above 2000 mg/kg
Details: rat; in vivo; po

| Structure (SMILES) | GHS category |
| --- | --- |
| N#Cc1ccc(N(c2ccc(C#N)cc2)c2ccc3c(c2)C(=O)N(Cc2cccnc2)C3=O)cc1 | 5 |
| C[C@@H]1CO[C@@](Cn2cncn2)(c2cc3cc(Cl)ccc3o2)O1 | 4 |
| CC(C)(C)c1cc2c(c(C(C)(C)C)c1)OP(=O)(O)Oc1c(cc(C(C)(C)C)cc1C(C)(C)C)C2 | 5 |
| CN(C(=O)Cl)c1nnc(C(C)(C)C)s1 | 4 |
| Cc1ccc(C(=O)Nc2ccc(S(=O)(=O)O)cc2)cc1[N+](=O)[O-] | 5 |
| CNC(=O)C(=NNc1ccc(Cl)cc1)C(C)=O | 5 |
| C=COC(=O)CCCCCCCCCCC | 5 |
| C=C(C)C(=O)OCCOC(=O)Oc1ccc(C(C)(C)c2ccc(OC(=O)OCCOC(=O)C(=C)C)cc2)cc1 | 5 |
| Cc1ccc(Cl)cc1N=Nc1c(O)c(C(=O)Nc2cc(C)c(NC(=O)c3cc4ccccc4c(N=Nc4cc(Cl)ccc4C)c3O)cc2C)cc2ccccc12 | 5 |
| OCC(CBr)(CBr)CBr | 5 |
| Clc1ccc(C2=NCOCS2)cc1 | 4 |
| COc1cc(C(=O)OCCOCCN2CCN(C(c3ccccc3)c3ccc(Cl)cc3)CC2)cc(OC)c1OC (stereo not drawn) | 5 |
| Cc1cc(OC(=O)c2cc(Cl)ccc2OC(N)=O)ccc1Cl | 5 |
| COC(=O)c1ccc(C(F)(F)F)nc1S(=O)(=O)NC(=O)Nc1nc(OC)cc(OC)n1 | 5 |
| CC(C(=O)C(N)=O)c1ccc(N2Cc3ccccc3C2=O)cc1 (stereo not drawn) | 5 |
| C=CC(=O)O[Si](C(C)C)(C(C)C)C(C)C | 5 |
| CCC(=O)C=Cc1ccc(OC)cc1 | 5 |
| CCC1COC(Cn2cncn2)(c2cc3cc(Cl)ccc3o2)O1 (stereo not drawn) | 4 |
| N[C@@H](Cc1cnc[nH]1)C(=O)O | 5 |
| O=C(c1ccc(F)cc1)c1cc(I)ccc1Cl | 5 |
| NCCCC(N)(C(=O)O)C(F)F (stereo not drawn) | 5 |
| CC(C)CC(=O)N[C@H](C(=O)N[C@H](C(=O)N[C@@H](CC(C)C)[C@@H](O)CC(=O)N[C@@H](C)C(=O)N[C@@H](CC(C)C)[C@@H](O)CC(=O)O)C(C)C)C(C)C (Isovaleryl-VV[Sta]A[Sta]-OH) | 5 |

| Structure (SMILES) | GHS category |
| --- | --- |
| CC1=CCC(C(C)(C)OC(=O)C(C)C)CC1 (stereo not drawn) | 5 |
| FC(F)(F)c1cccc(C2=CCN(CCc3ccc4ccccc4c3)CC2)c1 | 4 |
| NC(=O)Oc1ccccc1C(=O)Oc1ccccc1Cl | 5 |
| CCCCCC(=O)OCCC(C)C | 5 |
| C#CCN1C(=O)CCc2c(OCCCN3CCC(Cc4ccccc4)CC3)cccc21 | 4 |
| C=C(C)C(=O)O[Si](C(C)C)(C(C)C)C(C)C | 5 |
| CCCc1c(Cc2ccc(-c3ccccc3-c3nn[nH]n3)cc2)c(NCCN2CCOCC2)nc2ncnn12 | 4 |
| CC(C)(C)[C@H]1CC[C@H](O)CC1 | 5 |
| NC[C@H]1O[C@H](O[C@H]2[C@H](O[C@@H]3O[C@H](CO)[C@@H](O)[C@H]3O)C(O)[C@H](N)C[C@@H]2N)[C@H](N)[C@@H](O)[C@@H]1O (stereo partly drawn) | 5 |
| COC(=O)N(OC)c1ccccc1COc1ccn(-c2ccc(Cl)cc2)n1 | 5 |
| CN1C(C(=O)Nc2ccccn2)=C(OP2(=O)OCCCO2)c2sc(Cl)cc2S1(=O)=O | 2 |
| FC1(F)COC1(F)F | 4 |
| CCOc1cc(N)c(Cl)cc1C(=O)NCC1CN(Cc2ccc(F)cc2)CCO1 (stereo not drawn) | 5 |
| CC(=O)O[C@@H]1[C@H](OC(C)=O)[C@@H](C)O[C@H]1n1cc(F)c(N)nc1=O | 5 |
| Cc1cc(C)nc(NC(=O)NS(=O)(=O)c2ccccc2C(=O)OC2COC2)n1 | 5 |
| CC/C=C\CCOC(C)=O | 5 |
| O=C[C@H](O[C@@H](C=O)[C@@H](O)[C@H](O)[C@H](O)CO)[C@@H](O)[C@H](O)[C@H](O)CO | 5 |
| Cc1cccc2ncc(C(=O)Nc3ccc(F)cc3)c(=O)n12 | 3 |
| CC(C)C[C@H]1C(=O)N2CCC[C@H]2[C@]2(O)O[C@](NC(=O)[C@@H]3C=C4c5cccc6[nH]c(Br)c(c56)C[C@H]4N(C)C3)(C(C)C)C(=O)N12 | 5 |
| CC(C)=NO | 5 |
| CCN1C(=O)CCc2c(OCC(O)CN3CCC(Cc4ccccc4)CC3)cccc21 (stereo not drawn) | 4 |
| C[C@H]1C[C@@H]2[C@H]([C@@H](O)C[C@@]3(C)[C@H]2CC[C@]3(O)C(=O)COC(=O)CCC(=O)O)[C@@]2(C)C=CC(=O)C=C12 | 5 |

| Structure (SMILES) | GHS category |
| --- | --- |
| CNC(=O)C(=NNc1cccc(C)c1)C(C)=O | 5 |
| CN[C@@H]1[C@H](O[C@H]2[C@H](O[C@@H]3[C@H](O)[C@@H](O)[C@@H](OC(N)=O)[C@@H](O)[C@@H]3NC(=N)N)O[C@@H](C)[C@]2(O)CO)O[C@@H](CO)[C@H](O)[C@H]1O | 5 |
| C[Si](C)(C)[Si](C)(C)C | 5 |
| COc1ccc(CCN(C(=O)CCCSc2nnnn2C)C2CCCCC2)cc1OC | 4 |
| FC(F)(F)OC(Cl)C(F)(Cl)Cl (stereo not drawn) | 5 |
| C=C(c1ccccc1)c1ccccc1 | 5 |
| CC(C)c1nc2ccccc2c(=O)n1-c1ccncc1 | 4 |
| O=C1CCc2c(OCC(O)CN3CCC(Cc4ccccc4)CC3)ccc(Br)c2N1 (stereo not drawn) | 4 |
| COc1cccc(OC)c1C(=O)O | 4 |
| CN(C)C1=NC(=O)C(c2ccccc2)O1 (stereo not drawn) | 5 |
| COc1nn(-c2cccc(C(F)(F)F)c2)c2ncccc12 | 4 |
| O=C1NC(=O)C(c2ccc(O)cc2)(c2ccc(O)cc2)N1 | 5 |
| CCCCC(CC)CNc1ccc(NCC(CC)CCCC)c2c1C(=O)c1c(O)ccc(O)c1C2=O (stereo not drawn) | 5 |
| CCCNC(=O)c1sc(-c2ccc(OC)cc2)nc1C | 5 |
| CCCc1c(Cc2ccc(-c3ccccc3-c3nn[nH]n3)cc2)c(=O)nc2nc(CC)[nH]n12 | 4 |
| CNC(=O)Oc1cc(C)c(S(C)(=O)=O)c(C)c1 | 4 |
| CC1(C)COC(Cn2cncn2)(c2cc3ccccc3o2)OC1 | 4 |
| O=C1C=CC(=NNc2ccc(N=Nc3ccc(-c4ccc(NN=C5C=CC(=O)C(C(=O)O)=C5)cc4)cc3)c3ccc(S(=O)(=O)O)cc23)C=C1 | 5 |
| CCCCCCCCCC[C@H]1O[C@H]1CCCCC(C)C | 5 |
| O=C(O)Cc1ccc(Cl)cc1Cl | 5 |
| Cc1ccc(C(N)=O)c(O)c1 | 5 |
| Nc1nc(=O)c2c(CCc3ccc(C(=O)O)cc3)c[nH]c2[nH]1 | 5 |

| Structure (SMILES) | GHS category |
| --- | --- |
| CC(C)C[Si](Cl)(Cl)Cl | 3 |
| CC[C@H]1OC(=O)[C@H](C)[C@@H](O[C@H]2C[C@@](C)(OC)[C@@H](O)[C@H](C)O2)[C@H](C)[C@@H](O[C@@H]2O[C@H](C)C[C@H](N(C)C)[C@H]2O)[C@](C)(O)C[C@@H](C)CN(C)[C@H](C)[C@@H](O)[C@]1(C)O | 5 |
| CCCS(=O)(=O)Nc1ccc(F)c(C(=O)c2c[nH]c3ncc(Br)cc23)c1F | 5 |
| Cc1cc(C(=O)Nc2ccccc2C)n[nH]1 | 5 |
| CCC(=O)C=CC1C(C)=CCCC1(C)C (stereo not drawn) | 5 |
| N#CCC(=O)c1ccccc1Cl | 5 |
| CCCCC(C)OP(=S)(OCC)OCC (stereo not drawn) | 4 |
| Cc1cccc(OC(=O)c2ccc(Cl)cc2OC(N)=O)c1 | 5 |
| CCN(C(=O)Cl)C1CCCCC1 | 4 |
| C[SiH]1O[SiH](C)O[SiH](C)O[SiH](C)O[SiH](C)O1 (stereo not drawn) | 5 |
| COc1cc(OC)nc(NC(=O)NS(=O)(=O)c2c(C(=O)O)cnn2C)n1 | 5 |
| CCCCOC(=O)C(C)C | 5 |
| C=C(C)COCC/C=C\CC | 5 |
| CCOC(=O)C1OC1C(=O)NC(CC(C)C)C(=O)NCCC(C)C (stereo not drawn) | 5 |
| CCCCCCCCCCCCCCCCCCSSCCCCCCCCCCCCCCCCCC | 5 |
| CC(C)(C)N(Sc1nc2ccccc2s1)Sc1nc2ccccc2s1 | 5 |
| C#C[C@]1(O)CC[C@H]2[C@@H]3CCC4=CC(=O)CC[C@]4(C)[C@H]3CC[C@@]21C | 5 |
| C[C@@H]1C[C@H]2[C@@H]3CCC4=CC(=O)C=C[C@]4(C)[C@@]3(F)[C@@H](O)C[C@]2(C)[C@@]1(O)C(=O)COS(=O)(=O)O | 5 |
| CCCCCCOc1ccc(-c2nc(-c3ccccc3)nc(-c3ccccc3)n2)c(O)c1 | 5 |
| FC(F)(Cl)C(F)(Cl)C(F)(Cl)C(F)(F)Cl (stereo not drawn) | 5 |
| O=C1Nc2ccccc2OC1(c1ccc(O)cc1)c1ccc(O)cc1 | 5 |
| C[C@@H](Oc1cc(Br)cnc1N)c1c(Cl)ccc(F)c1Cl | 5 |

| Structure (SMILES) | GHS category |
| --- | --- |
| CCCCCOC1OC(C)C(O)C(O)C1O (stereo not drawn) | 5 |
| CC(C)CCCCCCCCCCO | 5 |
| CCCc1c(Cc2ccc(-c3ccccc3-c3nn[nH]n3)cc2)c(=O)nc2nc(N(CC)CC)[nH]n12 | 4 |
| O=C1c2ccccc2C(=O)c2ccccc21 | 5 |
| C=CC(C)(CCC=C(C)C)OC(C)OCC (stereo not drawn) | 5 |
| CC(C)=CC/C(C)=C/COC(=O)c1ccccc1 | 5 |
| COC(=O)c1cc(Oc2ccc(C(=O)OC)cc2N)cc(C(=O)OC)c1 | 5 |
| CCCCCCCCCCCCCCCCOC(=O)OOC(=O)OCCCCCCCCCCCCCCCC | 5 |
| C[N+](C)(C)CC(=O)[O-] | 5 |
| CCCCOC(=O)C(=O)Nc1cccc(-c2nnn[nH]2)c1 | 5 |
| CCNc1nc(Cl)nc(NCC(=O)O)n1 | 5 |
| O=P(Oc1ccccc1)(Oc1ccccc1)Oc1cccc(OP(=O)(Oc2ccccc2)Oc2ccccc2)c1 | 5 |
| COCCNC(=O)c1ccnc(C(=O)NCCOC)c1 | 5 |
| CC(=O)OCC1=CC[C@@]23C[C@@H]1C(C)(C)[C@@H]2CC[C@H]3C | 5 |
| CC(C)C1=CC23CCC4C(C)(C(=O)N5CCN(CCO)CC5)CCCC4(C)C2CC1C1C(=O)OC(=O)C13 (stereo not drawn) | 5 |
| Cc1ccc(C(C)C)c(OC(=O)c2ccccc2Nc2cccc(C)c2C)c1 | 5 |
| O=C(OCCOCCO)c1cc(O)ccc1Nc1ccc(O)c(C(F)(F)F)c1 | 4 |
| CCCCCCCCCCCCCCCCNP1(=S)OCc2cc([N+](=O)[O-])ccc2O1 (stereo not drawn) | 3 |
| COC(=O)CSP(=S)(OC)OC | 5 |
| CCCc1c(Cc2ccc(-c3ccccc3-c3nn[nH]n3)cc2)c(=O)nc2nc(C)[nH]n12 | 4 |
